Assay results taken from ChEMBL document CHEMBL2073882, “Wild-type p53-mediated induction of rat mdr1b expression by the anticancer drug daunorubicin” (J Biol Chem, 1998).

Molecular target: ATP-dependent translocase ABCB1 (Rattus norvegicus, UniProt P43245)
Assay: TP_TRANSPORTER: RNase protection assay in vitro, rat hepatoma H-4-II-E cells
Type: functional, cell-based

ATP-dependent translocase ABCB1, sequence (P43245 whole entry): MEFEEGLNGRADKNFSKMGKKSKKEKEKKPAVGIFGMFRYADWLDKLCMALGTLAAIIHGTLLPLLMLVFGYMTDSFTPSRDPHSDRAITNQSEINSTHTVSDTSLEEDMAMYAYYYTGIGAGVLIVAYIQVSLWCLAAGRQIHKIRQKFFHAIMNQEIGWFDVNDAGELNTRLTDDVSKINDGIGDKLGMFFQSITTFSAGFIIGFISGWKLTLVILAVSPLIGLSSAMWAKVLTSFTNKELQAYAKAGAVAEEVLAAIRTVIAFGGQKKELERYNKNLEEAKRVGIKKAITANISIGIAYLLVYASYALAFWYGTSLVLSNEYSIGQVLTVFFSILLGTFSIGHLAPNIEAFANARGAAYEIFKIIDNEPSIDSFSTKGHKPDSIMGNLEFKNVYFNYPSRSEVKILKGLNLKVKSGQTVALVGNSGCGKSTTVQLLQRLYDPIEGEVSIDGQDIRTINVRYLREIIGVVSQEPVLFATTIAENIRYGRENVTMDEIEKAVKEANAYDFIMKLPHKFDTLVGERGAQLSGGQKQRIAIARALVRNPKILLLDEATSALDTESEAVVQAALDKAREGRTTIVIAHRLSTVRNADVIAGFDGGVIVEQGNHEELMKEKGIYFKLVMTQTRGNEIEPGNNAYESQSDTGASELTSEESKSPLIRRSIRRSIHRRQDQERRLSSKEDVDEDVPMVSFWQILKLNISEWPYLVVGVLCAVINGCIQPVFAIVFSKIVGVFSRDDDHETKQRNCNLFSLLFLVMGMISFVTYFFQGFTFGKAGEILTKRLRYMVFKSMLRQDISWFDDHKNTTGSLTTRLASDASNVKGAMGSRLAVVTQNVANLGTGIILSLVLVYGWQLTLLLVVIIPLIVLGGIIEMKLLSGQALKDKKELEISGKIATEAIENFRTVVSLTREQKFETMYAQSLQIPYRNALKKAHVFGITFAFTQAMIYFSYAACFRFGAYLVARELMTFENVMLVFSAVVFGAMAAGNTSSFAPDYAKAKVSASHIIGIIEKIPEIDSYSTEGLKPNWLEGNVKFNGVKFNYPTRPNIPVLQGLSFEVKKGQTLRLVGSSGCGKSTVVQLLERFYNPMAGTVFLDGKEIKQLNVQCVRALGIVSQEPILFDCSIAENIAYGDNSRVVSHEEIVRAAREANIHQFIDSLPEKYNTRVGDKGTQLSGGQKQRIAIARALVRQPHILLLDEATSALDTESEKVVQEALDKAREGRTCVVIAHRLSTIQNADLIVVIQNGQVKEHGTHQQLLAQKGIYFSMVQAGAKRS

- Activity: inducer [+]
SMILES: COc1cccc2c1C(=O)c1c(O)c3c(c(O)c1C2=O)C[C@@](O)(C(C)=O)C[C@@H]3O[C@H]1C[C@H](N)[C@H](O)[C@H](C)O1 [DAUNORUBICIN]
